Data: patent US12116421B2, “Peptide-based Dopa containing adhesive gels” (KING ABDULLAH UNIVERSITY OF SCIENCE AND TECHNOLOGY, priority 2020, dated 2024)
Where a SMILES comes first, the peptide text is derived from it. [ ]: non-standard residue; d: D form. Dopa = N[C@@H](Cc1ccc(O)c(O)c1)C(=O)O; Cha = N[C@@H](CC1CCCCC1)C(=O)O

Legend:
[1] = test system: mouse myoblast cells (C2C12); assay: Cytocompatibility of peptide nanogels, 3D culture, MTT and live/dead staining; assay type: cell-based
Protocol: In one embodiment, cytocompatibility of the peptide nanogels was evaluated using mouse myoblast cells (C2C12). After 24 hours of incubation, cell proliferation was tested with DoIIZK, IIZDoK, IIZKDo, IIZ(KDo)2 and IIZ(KDo)3 at a concentration of 3 mg/mL to evaluate biocompatibility. The MTT (3-(4,5-dimethylthiazol-2-yl)-2,5-diphenyltetrazolium bromide) assay was used in order to quantify the number of viable cells. In one embodiment, a standard curve for a known number of cells was also plotted. In one embodiment, the test results were compared to the positive control 2D culture. A positive indication of cytocompatibility would be the survival of the cells following incubation with the peptides. For comparison, peptides DoIIZK, IIZDoK, IIZKDo, IIZ(KDo)2 and IIZ(KDo)3 were tested as part of the study. The cytocompatibilty of all peptides tested was evaluated by quantifying the survival cells by visualising the live/dead cells using calcein AM and Ethidium bromide staining.
Poli-D Lysine (PDL) was used for 2D control. The scalebar in FIG. 35 is 200 μm. Cytocompatibility of all peptides was evaluated by quantifying the survival cells by visualising the live/dead cells using calcein AM and Ethidium homodimer staining. The live cells are stained green by calcein AM, while the dead cells are stained red by Ethidium homodimer.
For mouse myoblast cells (C2C12) culture expansion, C2C12 cells were cultured either in a T175 or T75 culture flask in complete DMEM media (10% FBS and 1% P/S). The cells were placed in a humidified incubator at 37° C., with 95% air and 5% CO2. Then they were subcultured using trypsin at approximately 80% confluence. Fresh culture media was added every 48 h to each well, after removing the previous media.
For 3D culture of mouse myoblast cells in peptide hydrogels and cell viability assay, C2C12 cells were encapsulated in peptide hydrogels in a 96-well plate.^61 Briefly, peptide solutions DopaIIZK, IIZDopaK, IIZKDopa (3 mg/mL) were added to 40 μL/well. Mouse myoblast cells (30,000 cells/well) that were re-suspended in 2×PBS were then, mixed gently with the peptide solutions. The gelation time was 1-3 min for all 5 peptides. Subsequently, the culture medium was added to the wells.
The viability of 3D cultured cells was assessed using the LIVE/DEAD Viability/Cytotoxicity Kit (ThermoFisher®, USA)^11. Calcein acetoxymethyl ester (Calcein-AM) is used to detect viable cells and ethidium homodimer-I (EthD-I) is used to detect dead cells. Briefly, staining with 2 μM of Calcein-AM and 4 μM of EthD-1 is performed after washing with Dulbecco's phosphate-buffered saline (D-PBS). After 30 minutes incubation, the staining solution was discarded, and 1×D-PBS was added to each well before imaging. Stained cells were imaged with an inverted confocal microscope (Zeiss® LSM 710 Inverted Confocal Microscope, Germany) or ZEISS® fluorescent microscope.

[2] = AFM topography of peptide nanofibres; assay type: physicochemical; details: 13 mM in MilliQ water
Protocol: In one embodiment, DoIIZK and IIZKDo form nice long and twisted fibers whereas, but IIZDoK peptide performs scarcely even at the concentration of 10 mg/mL. The photos in FIG. 11 has a scalebar of 200 nm, while the photos in FIG. 12 has a scalebar of 400 nm. The peptides shown in FIGS. 11 and 12 are dissolved in MilliQ® water at the concentration of 13 mM. According to the AFM photos in FIGS. 15 and 16 and 3D plot shown in FIG. 11, peptides DoIIZK, IIZDoK and IIZKDo show the following structural properties: • DoIIZK: helical pitch of 24.75±1.46 nm; maximum diametre 1.01±0.14 nm; minimum diametre: 0.66±0.09 nm. • IIZDoK: helical pitch of 8.63±0.49 nm; maximum diametre 1.66±0.19 nm; minimum diametre: 1.16±0.17 nm. • IIZKDo: helical pitch of 24.21±1.24 nm; maximum diametre 3.87±0.28 nm; minimum diametre: 3.09±0.16 nm.
AFM topography measurements were performed on a Dimension Icon SPM (Bruker®). The samples were prepared as follows: peptides were dissolved at 13 mM concentration in MilliQ® water; after 30 minutes, 20 μl of these solutions were dropped on freshly cleaved mica sheets and immediately dried with an N2 stream. Measurements were immediately performed in tapping mode in air by the use of an AFM probe AC_240TS_R3 (Olympus®) with nominal free oscillation at roughly 70 kHz and a nominal spring constant of 2 N/m. The probe was calibrated by contact-free method.^54 Free oscillation amplitude was set at 200 mV with a 5% damping during tapping mode measurement. AFM adhesion measurements were performed on a JPK Nanowizard™ III mounted on Olympus® IX-81 inverted optical microscope. A mica sheet was glued one day before the experiment with double component epoxy glue to a glass slide and enclosed in a plastic o-ring provided by the JPK company for liquid measurements. Each peptide was dissolved in MilliQ® water at a concentration of 13 mM and mixed gently. Starting with the measurement in MilliQ® water, 50 μL of the solution were dropped on the freshly cleaved mica sheet within 5 minutes from the preparation of the solution and let equilibrate for 10 minutes. After, the excess solution was removed by pipetting and discarded. Then 1 mL of MilliQ® water was added gently from the side and after 5 minutes, the sample was rinsed 3 times by additional 1 mL MilliQ® water. Finally, the sample was measured by AFM force spectroscopy (Quantitative imaging mode) with additional 1 mL MilliQ® water. The MilliQ® water was exchanged after the measurement alternatively with a water solution containing 137 mM NaCl or 10 mM Phosphate ions (a combination of Na2HPO4·7H2O and NaH2PO4·H2O to reach pH 7.4). After performing the force spectroscopy map in these two different solutions, eventually, the liquid was exchanged with 1×PBS pH 7.4. To verify the presence of eventual fibers, after the measurement, the excess solution was removed by pipetting and discarded. The sample was then rinsed two times with 1 mL MilliQ® water and dried overnight in a vacuum chamber. The topography AFM imaging was performed using AC-240TS_R3 AFM probes in tapping mode in the JPK AFM.

Structure (SMILES): CC[C@H](C)[C@H](NC(C)=O)C(=O)N[C@H](C(=O)N[C@@H](CC1CCCCC1)C(=O)N[C@@H](CCCCN)C(=O)N[C@@H](Cc1ccc(O)c(O)c1)C(N)=O)[C@@H](C)CC [IIZKDo, Ac-Ile-Ile-Cha-Lys-Dopa-NH2] (Ac-II[Cha]K[Dopa]-NH2)
- biocompatibility with C2C12 cells [1]: biocompatible
- cell viability / toxicity [1]: good viability
- metabolic activity of cells versus 2D cultures [1]: consistently comparable to 2D cultures
- time cells stay metabolically active in nanogel [1]: metabolically active for up to day 21
- helical pitch [2]: 24.21±1.24 nm
- maximum diametre [2]: 3.87±0.28 nm
- minimum diametre [2]: 3.09±0.16 nm

Structure (SMILES): CC[C@H](C)[C@H](NC(C)=O)C(=O)N[C@H](C(=O)N[C@@H](CC1CCCCC1)C(=O)N[C@@H](Cc1ccc(O)c(O)c1)C(=O)N[C@@H](CCCCN)C(N)=O)[C@@H](C)CC [IIZDoK, Ac-Ile-Ile-Cha-Dopa-Lys-NH2] (Ac-II[Cha][Dopa]K-NH2)
- biocompatibility with C2C12 cells [1]: biocompatible
- cell viability / toxicity [1]: good viability
- metabolic activity of cells versus 2D cultures [1]: consistently comparable to 2D cultures
- time cells stay metabolically active in nanogel [1]: metabolically active for up to day 21
- helical pitch [2]: 8.63±0.49 nm
- maximum diametre [2]: 1.66±0.19 nm
- minimum diametre [2]: 1.16±0.17 nm

Structure (SMILES): CC[C@H](C)[C@H](NC(=O)[C@H](Cc1ccc(O)c(O)c1)NC(C)=O)C(=O)N[C@H](C(=O)N[C@@H](CC1CCCCC1)C(=O)N[C@@H](CCCCN)C(N)=O)[C@@H](C)CC [DoIIZK, Ac-Dopa-Ile-Ile-Cha-Lys-NH2] (Ac-[Dopa]II[Cha]K-NH2)
- biocompatibility with C2C12 cells [1]: biocompatible
- cell viability / toxicity [1]: good viability
- metabolic activity of cells versus 2D cultures [1]: consistently comparable to 2D cultures
- time cells stay metabolically active in nanogel [1]: metabolically active for up to day 21
- helical pitch [2]: 24.75±1.46 nm
- maximum diametre [2]: 1.01±0.14 nm
- minimum diametre [2]: 0.66±0.09 nm
